Five molecules from article PMC10900215 (JACS Au, 2024) can be followed below.

Each structure is given as a SMILES string. Several values for one entry are separate records, joined by “and”; a condition that tells them apart may be missing. Identical values can stand only once.

The target of data set [1] is T1, METTL3 (Homo sapiens, UniProt Q86U44).
T1 construct: METTL3–14 degradation up to 70% of the endogenous level; endogenous in cells; host or cells: MOLM-13, PC3, DU145
As to the kind of experiment: Cellular degradation assay (Western blot) in DU145. The conditions noted are these: DU145, 2 μM, 24 h. It is filed as cell-based. As to the method: (§1) MOLM-13, NOMO-1, THP-1, Kasumi-1, PC3, and DU145 cell lines were obtained from DSMZ-German Collection of Microorganisms and Cell Cultures GmbH. Cells were cultured in RPMI 1640 medium (11875093, Thermo Fisher Scientific) containing 10% FBS (16140071, Thermo Fisher Scientific) and 1% penicillin-streptomycin (15140122, Thermo Fisher Scientific) in 5% CO2 at 37 °C in a humidified incubator, with maintained cell densities at 0.5–1 × 10^6 cells/mL. All cell lines were tested negative for mycoplasma contamination (PCR-based assay by Microsynth, Switzerland).
(§2) METTL3 (and METTL14) protein degradation was monitored by Western blot. Cells were treated with the indicated concentration of PROTACs or DMSO control (0.1% (v/v)) for 24h, 37 °C with 5% CO2. Samples were then collected and lysed with RIPA buffer with added protease inhibitors (11697498001, Roche). After SDS-PAGE, proteins were transferred to a nitrocellulose membrane, blocked (with 5% milk, 0.5% BSA in TBST buffer), and incubated overnight with primary antibodies. The following antibodies were used: GAPDH (no. 2118, Cell Signaling, 1:4000), β-actin (ab8226, Abcam, 1:2000), METTL3 (ab195352, Abcam, 1:1000), and METTL14 (ab220031, Abcam, 1:1000). Membranes were scanned using an LI-COR Odyssey DLx imager after incubation with appropriate secondary antibodies (antimouse IgG IRDye 680RD (926–68072, LI-COR, 1:10000) and goat anti-Rabbit IgG IRDye 800CW (926–32211, LI-COR, 1:10000)). Densitometry was performed in Image Studio Lite software and analyzed in GraphPad Prism 9.

Data set [2] deals with T2, METTL3-14 (Homo sapiens, UniProt Q86U44). Put plainly: biochemical. Details: with the full-length complex, the recombinant complex construct pFastBacDual-StrepII-GFP-TEV-METTL3-His-TEV-METTL14 was expressed; StrepII (N); GFP (N); TEV site (N); made in house; host or cells: baculovirus/Sf9 insect cells. To be noted: inhibition of catalytic activity of METTL3-14, binary FRET assay. The method, boiled down: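 Full-length human METTL3–METTL14 complex (StrepII-GFP-METTL3-His/METTL14) expressed in baculovirus/Sf9 cells and purified. Inhibition of METTL3 methyltransferase activity measured in a homogeneous time-resolved fluorescence (HTRF) enzyme assay; IC50 determined.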
Target sequence in this assay (Q86U44 whole entry): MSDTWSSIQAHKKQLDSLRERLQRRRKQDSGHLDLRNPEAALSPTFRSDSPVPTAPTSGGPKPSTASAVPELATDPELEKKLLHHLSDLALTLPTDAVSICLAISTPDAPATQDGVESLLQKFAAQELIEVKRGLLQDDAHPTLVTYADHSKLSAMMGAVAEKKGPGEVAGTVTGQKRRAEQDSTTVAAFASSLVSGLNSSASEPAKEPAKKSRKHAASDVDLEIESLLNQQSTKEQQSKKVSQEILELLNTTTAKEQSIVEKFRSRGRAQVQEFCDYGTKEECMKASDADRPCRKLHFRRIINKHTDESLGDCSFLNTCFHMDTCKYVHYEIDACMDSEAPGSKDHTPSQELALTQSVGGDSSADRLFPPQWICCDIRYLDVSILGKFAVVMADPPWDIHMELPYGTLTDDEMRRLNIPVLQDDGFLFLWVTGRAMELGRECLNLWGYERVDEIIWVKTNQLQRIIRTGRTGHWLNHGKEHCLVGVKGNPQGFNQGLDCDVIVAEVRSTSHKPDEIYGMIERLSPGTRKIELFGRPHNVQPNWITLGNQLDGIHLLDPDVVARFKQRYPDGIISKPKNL
Target sequence in this assay (Q9HCE5 whole entry, further chain): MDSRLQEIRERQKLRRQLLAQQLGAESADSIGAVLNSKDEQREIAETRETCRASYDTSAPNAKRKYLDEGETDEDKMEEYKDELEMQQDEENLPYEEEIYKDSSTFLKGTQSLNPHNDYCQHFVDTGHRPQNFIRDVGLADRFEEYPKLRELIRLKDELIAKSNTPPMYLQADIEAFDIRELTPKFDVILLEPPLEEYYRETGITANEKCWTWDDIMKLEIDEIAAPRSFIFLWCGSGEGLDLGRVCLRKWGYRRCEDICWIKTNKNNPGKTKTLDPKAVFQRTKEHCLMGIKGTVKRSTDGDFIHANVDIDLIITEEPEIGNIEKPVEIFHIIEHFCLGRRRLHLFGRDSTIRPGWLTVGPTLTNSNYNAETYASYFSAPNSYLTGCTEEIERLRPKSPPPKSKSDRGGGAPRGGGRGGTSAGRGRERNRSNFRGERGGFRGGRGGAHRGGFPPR

A short description of data set [3]: Cell viability assay (CellTiter-Glo) on MOLM-13. It is filed as cell-based. The conditions noted are these: human, MOLM-13 cells, average of two biological replicates; for viability at 72 h, […]: 2.5 µM. The method, boiled down: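 MOLM-13 AML cells grown in RPMI 1640 with 10% FBS at 37 °C, 5% CO2. Viability read as ATP luminescence by CellTiter-Glo after 10 min at room temperature, with background from cell-free medium wells subtracted.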

In data set [4] the target is T1, METTL3. Put plainly: Cellular degradation assay (Western blot), METTL3 in MOLM-13. It is filed as cell-based. The conditions noted are these: for MOLM-13 West. blot at 24h 2 μM comp conc. Degradation (%) of METTL3: MOLM-13, 24 h, 2 μM compound. The procedure, abridged:
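PROTACs or 0.1% DMSO vehicle applied to cells for 24h at 37 °C, 5% CO2 in RPMI 1640 with 10% FBS; RIPA lysates run on SDS-PAGE. Western blot for METTL3 or METTL14 against GAPDH or β-actin loading controls, with fluorescent secondary antibodies and densitometry quantification.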
For orientation: Immunoblotting shows a protein as a band on a membrane.

The target of data set [5] is T2, METTL3-14. As to the kind of experiment: Cellular degradation assay (Western blot), METTL3 and/or METTL14 (METTL3–14) in MOLM-13. It is filed as cell-based. Details: METTL3–14 degradation up to 70% of the endogenous level; endogenous in cells; host or cells: MOLM-13, KASUMI-1, THP-1, NOMO-1. To be noted: for concentration at which the highest degradation was observed: MOLM-13, five concentrations; for METTL3–14 levels in the presence of UZH2: MOLM-13, 2 μM PROTAC + 10 μM UZH2; for METTL3–14 degradation in the presence of lenalidomide: MOLM-13, 2 μM PROTAC + 10 μM lenalidomide; for degradation of METTL3 and/or METTL14: MOLM-13, 2 μM, 24 h, Western blot. The protocol:
MOLM-13, NOMO-1, THP-1, Kasumi-1, PC3, and DU145 cell lines were obtained from DSMZ-German Collection of Microorganisms and Cell Cultures GmbH. […] All cell lines were tested negative for mycoplasma contamination (PCR-based assay by Microsynth, Switzerland).
METTL3 (and METTL14) protein degradation was monitored by Western blot. Cells were treated with the indicated concentration of PROTACs or DMSO control (0.1% (v/v)) for 24h, 37 °C with 5% CO2. […] After SDS-PAGE, proteins were transferred to a nitrocellulose membrane, blocked (with 5% milk, 0.5% BSA in TBST buffer), and incubated overnight with primary antibodies. […] Densitometry was performed in Image Studio Lite software and analyzed in GraphPad Prism 9.
Target sequence in this assay (Q86U44 2-580 limits assumed): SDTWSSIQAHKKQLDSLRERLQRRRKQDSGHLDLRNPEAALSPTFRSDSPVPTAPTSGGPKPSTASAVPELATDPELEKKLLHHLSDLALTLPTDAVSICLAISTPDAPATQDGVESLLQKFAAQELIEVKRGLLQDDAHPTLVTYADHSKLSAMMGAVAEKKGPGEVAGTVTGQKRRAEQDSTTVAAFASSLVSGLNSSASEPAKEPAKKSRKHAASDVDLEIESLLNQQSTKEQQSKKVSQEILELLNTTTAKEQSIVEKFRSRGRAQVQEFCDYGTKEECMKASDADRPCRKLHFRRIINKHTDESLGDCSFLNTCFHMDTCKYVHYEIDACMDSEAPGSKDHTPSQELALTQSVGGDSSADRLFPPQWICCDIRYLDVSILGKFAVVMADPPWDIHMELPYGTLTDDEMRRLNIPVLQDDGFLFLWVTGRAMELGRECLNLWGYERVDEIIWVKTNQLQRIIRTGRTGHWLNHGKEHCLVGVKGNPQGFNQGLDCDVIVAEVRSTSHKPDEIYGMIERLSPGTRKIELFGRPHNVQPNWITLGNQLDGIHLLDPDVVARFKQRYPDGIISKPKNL
Target sequence in this assay (Q9HCE5 whole entry partner): as the sequence (Q9HCE5 whole entry, further chain) above

The target in data set [6] is T2, METTL3-14. Put plainly: Cellular degradation assay (Western blot) in THP-1. It is filed as cell-based. Details: METTL3–14 degradation up to 70% of the endogenous level; endogenous in cells; host or cells: MOLM-13, KASUMI-1, THP-1, NOMO-1. The conditions noted are these: THP-1, 2 μM, 24 h. The protocol: as §1, §2
Target sequence in this assay (Q86U44 2-580 limits assumed): as the sequence (Q86U44 2-580 limits assumed) above
Target sequence in this assay (Q9HCE5 whole entry partner): as the sequence (Q9HCE5 whole entry, further chain) above

T1 sequence (Q86U44 2-580 limits assumed): as the sequence (Q86U44 2-580 limits assumed) above
T1 sequence (Q9HCE5 whole entry partner): as the sequence (Q9HCE5 whole entry, further chain) above

With `CC1(C)CCN(Cc2cc(F)c(N3CC(=O)NC4(CCN(c5cc(NCc6cccc(CNC(=O)CCCNc7cccc8c7C(=O)N(C7CCC(=O)NC7=O)C8=O)c6)ncn5)CC4)C3)cc2F)CC1` (stereo not drawn) [Compound 14], the “effect on METTL3 level” value on METTL3 [1] is listed as “only a minor effect”. Besides, the half-maximal inhibitory concentration (IC50) at METTL3-14 [2] was 11 ± 1 nM. Besides, in data set [3], the viability at 72 h, 0.6 µM came to 95.5%; the viability at 72 h, 1.25 µM came out at 97.5%; the viability at 72 h, […] was determined as 103%; the viability at 72 h, 5 µM stood at 102%. For the same molecule, the viability at 72 h, 10 µM in data set [3] is 94.1%. Also, the “METTL3 reduction at highest effect in concentration dependence” value at METTL3 [4] (MOLM-13, 1 μM) was “around 50%”. Besides, the “MOLM-13 West. blot at 24h 2 μM comp conc. Degradation (%) of METTL3” value (shortened to “MOLM-13 West. blot … (%) of METTL3”) on METTL3 [4] is 52% and 52 ± 8%. Further, the “concentration at which the highest degradation was observed” value on METTL3-14 [5] stood at 1 µM. Also, at METTL3-14 [6], the “degradation levels of METTL3 and METTL14” value was “comparable to those in MOLM-13”.
Turning to `CC1(C)CCN(Cc2cc(F)c(N3CC(=O)NC4(CCN(c5cc(NCc6cccc(CNC(=O)CCCCCCCCCCn7cc(CNc8cccc9c8C(=O)N(C8CCC(=O)NC8=O)C9=O)nn7)c6)ncn5)CC4)C3)cc2F)CC1` (stereo not drawn) [Compound 20], the “effect on METTL3 level” value at METTL3 [1] was “only a minor effect”. At METTL3-14 [2], the IC50 worked out at 200 ± 30 nM. Moreover, in data set [3], the viability at 72 h, 0.6 µM is 101%; the viability at 72 h, 1.25 µM worked out at 94.6%; the viability at 72 h, […] amounted to 90.7%; the viability at 72 h, 5 µM is 89.5%. Moreover, the viability at 72 h, 10 µM in data set [3] worked out at 86.4%. Besides, the “MOLM-13 West. blot … (%) of METTL3” value at METTL3 [4] was 42% and 42 ± 13%. In addition, at METTL3-14 [5], the “METTL3–14 levels in the presence of UZH2” value is reported as “elevated levels of METTL3–14”, the “METTL3–14 degradation in the presence of lenalidomide” value was “did not observe any degradation” and the “degradation of METTL3 and/or METTL14” value is on record as not below 50%. Further, the “degradation levels of METTL3 and METTL14” value on METTL3-14 [6] is reported as “comparable to those in MOLM-13”.
As to `CC1(C)CCN(Cc2cc(F)c(N3CC(=O)NC4(CCN(c5cc(NCC6CCN(C(=O)CCCNc7cccc8c7C(=O)N(C7CCC(=O)NC7=O)C8=O)CC6)ncn5)CC4)C3)cc2F)CC1` (stereo not drawn) [Compound 22], at METTL3 [1], the “effect on METTL3 level” value is on record as “only a minor effect”. Further, the IC50 at METTL3-14 [2] worked out at 11 ± 1 nM. Also, in data set [3], the viability at 72 h, 0.6 µM was determined as 95.8%; the viability at 72 h, 1.25 µM worked out at 97.8%; the viability at 72 h, […] is 96.2%; the viability at 72 h, 5 µM came to 88.4%. Further, in data set [3], the viability at 72 h, 10 µM came out at 77.4%. In addition, the “MOLM-13 West. blot … (%) of METTL3” value at METTL3 [4] was 46% and 46 ± 6%. For the same molecule, at METTL3-14 [6], the “degradation levels of METTL3 and METTL14” value is “comparable to those in MOLM-13”.
In the case of `CC1(C)CCN(Cc2cc(F)c(N3CC(=O)NC4(CCN(c5cc(NCC6CCN(C(=O)CCCCCNc7cccc8c7C(=O)N(C7CCC(=O)NC7=O)C8=O)CC6)ncn5)CC4)C3)cc2F)CC1` (stereo not drawn) [Compound 24], the “effect on METTL3 level” value at METTL3 [1] was “only a minor effect”. For the same molecule, the IC50 on METTL3-14 [2] was 58 ± 12 nM. Moreover, in data set [3], the viability at 72 h, 0.6 µM was 102%; the viability at 72 h, 1.25 µM came out at 95.2%; the viability at 72 h, […] is 109%; the viability at 72 h, 5 µM came out at 104%. Also, the viability at 72 h, 10 µM in data set [3] is 91%. For the same molecule, the “MOLM-13 West. blot … (%) of METTL3” value at METTL3 [4] was 36% and 36 ± 9%. Besides, at METTL3-14 [5], the “METTL3–14 levels in the presence of UZH2” value was “elevated levels of METTL3–14”, the “METTL3–14 degradation in the presence of lenalidomide” value was “did not observe any degradation” and the “degradation of METTL3 and/or METTL14” value is on record as not below 50%. Further, the “degradation levels of METTL3 and METTL14” value at METTL3-14 [6] is “comparable to those in MOLM-13”.
With `CC1(C)CCN(Cc2cc(F)c(N3CC(=O)NC4(CCN(c5cc(NCCN6CCN(C(=O)CCCCCNc7cccc8c7C(=O)N(C7CCC(=O)NC7=O)C8=O)CC6)ncn5)CC4)C3)cc2F)CC1` (stereo not drawn) [Compound 30], the “effect on METTL3 level” value on METTL3 [1] is on record as “only a minor effect”. The IC50 on METTL3-14 [2] came out at 27 ± 6 nM. In addition, in data set [3], the viability at 72 h, 0.6 µM is 91.3%; the viability at 72 h, 1.25 µM was found to be 90.9%; the viability at 72 h, […] stood at 91.1%; the viability at 72 h, 5 µM was 82.5%. Also, the viability at 72 h, 10 µM in data set [3] stood at 78.4%. At METTL3-14 [5] (MOLM-13, 0.1 μM), the “highest degradation in concentration dependence” value was “up to 60%”. The “concentration at which the highest degradation was observed” value at METTL3-14 [5] was found to be 0.1 µM. Moreover, the “degradation levels of METTL3 and METTL14” value on METTL3-14 [6] is given as “comparable to those in MOLM-13”.

As a reminder, the IC50 is the concentration that gives 50% inhibition. As usually defined, the viability is a read-out of living cells in per cent, often relative to untreated cells.
